Measurements taken from patent publication US9669035B2, “Combinations comprising PDE 2 inhibitors such as 1-aryl-4-methyl-[1,2,4]triazolo-[4,3-A]]quinoxaline compounds and PDE 10 inhibitors for use in the treatment of neurological of metabolic disorders” (Janssen Pharmaceutica NV, priority 2012, dated 2017).
Like-named read-outs stand apart in the source and are kept apart here.

Assays:
[1] = target: Rat recombinant PDE10A (rPDE10A2) (Rattus norvegicus (Rat), UniProt Q9QYJ6); assay: In vitro assay PDE10A (SPA, 3H-cAMP); format: biochemical
[2] = system: Apomorphine-induced agitation in rats; assay: Inhibition of apomorphine-induced agitation in rats (APO)
[3] = system: Apomorphine-induced agitation in rats; assay: Inhibition of apomorphine-induced agitation in rats in combination with MP-10; format: in vivo, rat; conditions: SC, MP-10 (0.63 mg/kg) + apomorphine (1.0 mg/kg) i.v.
Method: Inhibition of Apomorphine-induced Agitation in Rats in combination with MP-10 but the animals were simultaneously challenged with MP-10 (0.63 mg/kg) in addition to apomorphine (1.0 mg/kg) via one injection (2 ml/kg, i.v.), at a fixed time interval (standard 1 h) after s.c. or p.o. dosing of test compound or solvent. Twelve times, every 5 min, the intensity of agitation was scored 0 to 3.

[4] = system: d-Amphetamine-induced hyperlocomotion in rats; assay: d-Amphetamine-induced hyperlocomotion in rats: potentiation of the effect of MP-10; format: in vivo, rat; conditions: d-amphetamine (1.25 mg/kg, s.c.) + MP-10 (2.5 mg/kg, s.c.)
[5] = SC, lowest dose at which >=67% tested animals respond

Sequence of Rat recombinant PDE10A (rPDE10A2) (Q9QYJ6 whole entry): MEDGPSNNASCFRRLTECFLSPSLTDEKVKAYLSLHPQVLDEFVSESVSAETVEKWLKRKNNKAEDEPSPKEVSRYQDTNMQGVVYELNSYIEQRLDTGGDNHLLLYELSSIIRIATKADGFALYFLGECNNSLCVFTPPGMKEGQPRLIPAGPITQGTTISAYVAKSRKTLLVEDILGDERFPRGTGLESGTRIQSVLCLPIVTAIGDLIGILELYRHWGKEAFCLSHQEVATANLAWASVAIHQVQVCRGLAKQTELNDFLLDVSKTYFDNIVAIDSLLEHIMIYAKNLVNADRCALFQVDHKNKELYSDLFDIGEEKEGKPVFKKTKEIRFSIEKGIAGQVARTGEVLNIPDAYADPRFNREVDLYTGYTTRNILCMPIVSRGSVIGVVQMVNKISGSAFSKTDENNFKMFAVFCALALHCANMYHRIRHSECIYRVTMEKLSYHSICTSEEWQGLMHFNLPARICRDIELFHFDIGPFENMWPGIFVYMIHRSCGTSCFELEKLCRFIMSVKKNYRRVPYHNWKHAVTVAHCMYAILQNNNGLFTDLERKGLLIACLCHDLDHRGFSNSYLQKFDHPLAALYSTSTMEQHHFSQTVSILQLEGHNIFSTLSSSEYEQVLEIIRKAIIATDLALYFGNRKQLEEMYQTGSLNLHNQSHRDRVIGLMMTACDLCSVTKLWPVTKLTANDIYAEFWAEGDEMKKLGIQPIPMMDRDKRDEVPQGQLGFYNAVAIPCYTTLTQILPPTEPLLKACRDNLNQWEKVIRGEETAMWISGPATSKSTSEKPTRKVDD

Compound: COc1ccc(Cl)c(-c2nnc3c(C)nc4ccc(CN5CCOCC5)cc4n23)c1 [Compound B-10]
- PIC50 PDE10 ([1]; -log IC50 expressed in mol/L): 6.98
- Dose at Max Effect ([2]; PO): 10
- Max effect (lowest median cumulative agitation score) ([2]; PO, at the dose of column Dose at Max Effect): 21
- LAD (lowest active dose) ([2]; rat, in vivo): >10

Compound: CCCOc1cncc(-c2nnc3c(C)nc4ccc(CN5CCOCC5)cc4n23)c1 [Compound B-16]
- PIC50 PDE10 ([1]; -log IC50 expressed in mol/L): 5.21

Compound: CCOc1ccc(Cl)c(-c2nnc3c(C)nc4ccc(CN5CCOCC5)cc4n23)c1 [Compound B-7]
- PIC50 PDE10 ([1]; -log IC50 expressed in mol/L): 6.58
- Dose at max effect ([2]; SC): 10
- Max effect (lowest median cumulative agitation score) ([2]; SC, at the dose at max effect): 24
- LAD (lowest active dose) [2, 5]: >10

Compound: Cc1nc2ccc(CN(C)C)cc2n2c(-c3cc(OC(C)C)ccc3Cl)nnc12 [Compound B-17]
- PIC50 PDE10 [1]: 5.8
- Inh. of agitation < 10 Effect (cumulative agitation score) ([3]; Time 60, dose 10): 12
- Distance Total <2500 cm Effect ([4]; SC, Time -60, dose 2.5): 4133 cm
- Distance Total <2500 cm Effect ([4]; SC, Time -60, dose 10): 1721 cm

Compound: CCNCc1ccc2nc(C)c3nnc(-c4cc(OC(C)C)ccc4Cl)n3c2c1 [Compound B-19]
- PIC50 PDE10 [1]: 5.07

Compound: Cc1nc2ccc(CN(C)C)cc2n2c(-c3cncc(OCC4CC4)c3)nnc12 [Compound B-30]
- PIC50 PDE10 [1]: <5

Compound: Cc1nc2ccc(CN3CCOCC3)cc2n2c(-c3c(F)cccc3Cl)nnc12 [Compound B-5, 1-(2-Chloro-6-fluorophenyl)-4-methyl-8-(morpholin-4-ylmethyl) [1,2,4]triazolo[4,3-a]quinoxaline]
- Dose at max effect ([2]; SC): 40
- Max effect (lowest median cumulative agitation score) ([2]; SC, at the dose at max effect): 1
- LAD (lowest active dose) [2, 5]: 0.63

Compound: CCCCOc1cncc(-c2nnc3c(C)nc4ccc(CNC)cc4n23)c1 [Compound B-28]
- PIC50 PDE10 [1]: <5

Compound: CCCOc1cncc(-c2nnc3c(C)nc4ccc(CNCC)cc4n23)c1 [Compound B-24]
- PIC50 PDE10 [1]: <5

Compound: CCCCOc1cc(-c2nnc3c(C)nc4ccc(CN5CCOCC5)cc4n23)cnc1Cl [Compound B-29]
- PIC50 PDE10 ([1]; -log IC50 expressed in mol/L): <5

Compound: CCCOc1ccc(Cl)c(-c2nnc3c(C)nc4ccc(CNCC)cc4n23)c1 [Compound B-14]
- PIC50 PDE10 [1]: 5.75

Compound: CCNCc1ccc2nc(C)c3nnc(-c4cc(OCC)ccc4Cl)n3c2c1 [Compound B-22a]
- PIC50 PDE10 [1]: 6.04

Compound: CCCCOc1cncc(-c2nnc3c(C)nc4ccc(CNCC)cc4n23)c1 [Compound B-21]
- PIC50 PDE10 [1]: <5

Compound: Cc1nc2ccc(CN3CCOCC3)cc2n2c(-c3cc(OC(C)C)ccc3Cl)nnc12 [Compound B-6]
- PIC50 PDE10 ([1]; -log IC50 expressed in mol/L): 5.73
- Inh. of agitation < 10 Effect (cumulative agitation score) ([3]; Time 60, dose 2.5): 13
- Inh. of agitation < 10 Effect (cumulative agitation score) ([3]; Time 60, dose 10): 1
- Distance Total <2500 cm Effect ([4]; PO, Time -60, dose 10): 5033 cm
- Distance Total <2500 cm Effect ([4]; SC, Time -60, dose 0.63): 3096 cm
- Distance Total <2500 cm Effect ([4]; SC, Time -60, dose 2.5): 1206 cm
- Distance Total <2500 cm Effect ([4]; SC, Time -60, dose 10): 743.7 cm

Compound: Cc1nc2ccc(CN3CCOCC3)cc2n2c(-c3cc(F)ccc3Cl)nnc12 [Compound B-9]
- PIC50 PDE10 ([1]; -log IC50 expressed in mol/L): 7.07
- Dose at max effect ([2]; SC): 10
- Max effect (lowest median cumulative agitation score) ([2]; SC, at the dose at max effect): 9
- LAD (lowest active dose) ([2]; rat, in vivo): 2.5

Compound: CCCCOc1ccc(Cl)c(-c2nnc3c(C)nc4ccc(CNC)cc4n23)c1 [Compound B-25]
- PIC50 PDE10 [1]: 5.04
- Distance Total <2500 cm Effect ([4]; SC, Time -60, dose 10): 3921 cm

Compound: CCCCOc1ccc(Cl)c(-c2nnc3c(C)nc4ccc(CNC(C)C)cc4n23)c1 [Compound B-20]
- PIC50 PDE10 [1]: 5.38

Compound: CCCOc1ccc(Cl)c(-c2nnc3c(C)nc4ccc(CN(C)C)cc4n23)c1 [Compound B-15]
- PIC50 PDE10 [1]: 5.83

Compound: CCCCOc1cncc(-c2nnc3c(C)nc4ccc(CNC(C)C)cc4n23)c1 [Compound B-23]
- PIC50 PDE10 [1]: <5

Compound: CCOc1ccc(Cl)c(-c2nnc3c(C)nc4ccc(CN(C)C)cc4n23)c1 [Compound B-18]
- PIC50 PDE10 [1]: 6.5
- Inh. of agitation < 10 Effect (cumulative agitation score) ([3]; Time 60, dose 10): 17
- Distance Total <2500 cm Effect ([4]; SC, Time -60, dose 10): 3369 cm
- Dose at max effect ([2]; SC): 10
- Max effect (lowest median cumulative agitation score) ([2]; SC, at the dose at max effect): 22
- LAD (lowest active dose) ([2]; rat, in vivo): >10

Compound: Cc1nc2ccc(CN(C)C)cc2n2c(-c3ccccc3Cl)nnc12 [Compound B-13]
- PIC50 PDE10 ([1]; -log IC50 expressed in mol/L): 6.97
- Dose at max effect ([2]; SC): 10
- Max effect (lowest median cumulative agitation score) ([2]; SC, at the dose at max effect): 20.5
- LAD (lowest active dose) ([2]; rat, in vivo): >10

Compound: Cc1nc2ccc(CN3CCOCC3)cc2n2c(-c3cncc(OCC4CC4)c3)nnc12 [Compound B-26]
- PIC50 PDE10 ([1]; -log IC50 expressed in mol/L): 5.44
- Inh. of agitation < 10 Effect (cumulative agitation score) ([3]; Time 60, dose 10): 17
- Distance Total <2500 cm Effect ([4]; SC, Time -60, dose 2.5): 3061 cm
- Distance Total <2500 cm Effect ([4]; SC, Time -60, dose 10): 1653 cm

Compound: CCNCc1ccc2nc(C)c3nnc(-c4ccccc4Cl)n3c2c1 [Compound B-4, N-{[1-(2-Chlorophenyl)-4-methyl[1,2,4]triazolo[4,3-a]quinoxalin-8-yl]methyl}-ethanamine]
- PIC50 PDE10 ([1]; -log IC50 expressed in mol/L): 6.8
- Dose at max effect ([2]; SC): 10
- Max effect (lowest median cumulative agitation score) ([2]; SC, at the dose at max effect): 21
- LAD (lowest active dose) [2, 5]: >10

Compound: CCNCc1ccc2nc(C)c3nnc(-c4cncc(OCC5CC5)c4)n3c2c1 [Compound B-32]
- PIC50 PDE10 [1]: <5

Compound: Cc1nc2ccc(CNC(C)C)cc2n2c(-c3cncc(OCC4CC4)c3)nnc12 [Compound B-31]
- PIC50 PDE10 [1]: 5.84

Compound: COc1cncc(-c2nnc3c(C)nc4ccc(CN5CCOCC5)cc4n23)c1 [Compound B-12]
- PIC50 PDE10 ([1]; -log IC50 expressed in mol/L): 6.57
- Dose at max effect ([2]; SC): 10
- Max effect (lowest median cumulative agitation score) ([2]; SC, at the dose at max effect): 21
- LAD (lowest active dose) [2, 5]: >10

Compound: CCCOc1ccc(Cl)c(-c2nnc3c(C)nc4ccc(CN5CCOCC5)cc4n23)c1 [Compound B-8]
- PIC50 PDE10 ([1]; -log IC50 expressed in mol/L): 6.49
- Dose at max effect ([2]; SC): 10
- Max effect (lowest median cumulative agitation score) ([2]; SC, at the dose at max effect): 23
- LAD (lowest active dose) [2, 5]: >10

Compound: CCCCOc1ccc(Cl)c(-c2nnc3c(C)nc4ccc(CN5CCOCC5)cc4n23)c1.Cl [Compound B-2, 1-(5-Butoxy-2-chlorophenyl)-4-methyl-8-(morpholin-4-ylmethyl) [1,2,4]triazolo-[4,3-a]quinoxaline hydrochloride]
- PIC50 PDE10 ([1]; -log IC50 expressed in mol/L): 5.79
